{"source": "patent US20220251163A1", "about": "(Sinopep-Allsino Biopharmaceutical Co., Ltd., priority 2019, published 2022)", "key": {"[1]": {"experiment": "Effect on random weight of ob/ob mice after single subcutaneous injection", "type": "in vivo", "settings": "100 μg/kg single s.c., X ± s, n = 7", "protocol": "The mice in each group received random blood glucose value measurement before (0 h) administration and 2, 4, 6, 10 and 24 h after administration, and then the time for measuring the random blood glucose was adjusted and prolonged to 34, 48, 58 or 72 h after administration according to the blood glucose condition of the mice in each group. Meanwhile, the random weight of the mice in each group before (0 h) administration and 24 h after administration was weighed, and then the random weight of the mice corresponding to the random blood glucose measurement condition 48 or 72 h after administration was weighed."}, "[2]": {"system": "ob/ob mice", "experiment": "Blood glucose reducing experiment, single subcutaneous injection in ob/ob mice;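 further: random blood glucose read at each time point, decrease rate given as percentage fall versus the model control group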", "type": "in vivo", "settings": "100 μg/kg single s.c.", "protocol": "The mice in each group received random blood glucose value measurement before (0 h) administration and 2, 4, 6, 10 and 24 h after administration, and then the time for measuring the random blood glucose was adjusted and prolonged to 34, 48, 58 or 72 h after administration according to the blood glucose condition of the mice in each group. Meanwhile, the random weight of the mice in each group before (0 h) administration and 24 h after administration was weighed, and then the random weight of the mice corresponding to the random blood glucose measurement condition 48 or 72 h after administration was weighed. The blood glucose decrease rate, the blood glucose curve area (AUC0-24 h Glu) within 24 h after administration and the decrease rate were calculated according to the following formula.\nBlood glucose decrease rate=(blood glucose in the model control group−blood glucose in the administration group)/blood glucose in the model control group×100%\nBG0, BG2, BG4, BG6, BG10 and BG24 represented the blood glucose values before administration (0 h) and 2, 4, 6, 10 and 24 h after administration respectively.\nAUC0-24 h Glu(mmol/Lh·r) decrease rate=(model control group AUC0-24 h Glu−administration group AUC0-24 h Glu/model control group AUC0-24 h Glu×100%\nExperiments were carried out twice, at an interval of 8-10 days."}, "[3]": {"biological_target": "T1, mGLP-1R (Mus musculus, UniProt O35659)", "T1 construct": "expressed in transfected cells; host or cells: HEK293", "T1 sequence (O35659 22-463)": "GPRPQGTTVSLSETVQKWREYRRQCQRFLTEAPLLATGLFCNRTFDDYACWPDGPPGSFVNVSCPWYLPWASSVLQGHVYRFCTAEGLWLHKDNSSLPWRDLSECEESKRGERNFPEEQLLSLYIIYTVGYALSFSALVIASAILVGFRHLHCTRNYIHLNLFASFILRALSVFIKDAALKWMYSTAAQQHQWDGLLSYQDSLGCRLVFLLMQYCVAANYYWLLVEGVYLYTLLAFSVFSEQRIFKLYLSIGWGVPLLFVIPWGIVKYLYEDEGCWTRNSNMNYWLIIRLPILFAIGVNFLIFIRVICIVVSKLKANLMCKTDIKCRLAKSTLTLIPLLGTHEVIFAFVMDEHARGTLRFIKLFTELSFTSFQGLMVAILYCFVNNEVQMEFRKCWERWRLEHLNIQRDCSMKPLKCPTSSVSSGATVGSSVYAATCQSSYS", "experiment": "GLP-1R agonist activity, cAMP in transfected HEK293 cells", "type": "cell-based", "protocol": "HEK293 cells were co-transfected with cDNA encoding GLP-1R or GIPR. In a test for determining the compound, the cells were inoculated in a 96-well plate 2 h in advance, the polypeptide compound was dissolved with DMSO, and diluted to different multiples with a culture medium containing 0.1% bovine serum albumin and added to the co-transfected cells. After the cells were incubated for 20 min, fluorescence values were determined through microplate reader of an ELISA kit of the Cisbo Company, a standard curve was established to convert the fluorescence values into corresponding cAMP values, and the EC50 value of the compound was calculated through nonlinear regression of Graphpad Prism 5.0 software."}, "[4]": {"biological_target": "T2, mGIPR (Mus musculus, UniProt Q0P543)", "T2 construct": "expressed in transfected cells; host or cells: HEK293", "T2 sequence (Q0P543 19-460)": "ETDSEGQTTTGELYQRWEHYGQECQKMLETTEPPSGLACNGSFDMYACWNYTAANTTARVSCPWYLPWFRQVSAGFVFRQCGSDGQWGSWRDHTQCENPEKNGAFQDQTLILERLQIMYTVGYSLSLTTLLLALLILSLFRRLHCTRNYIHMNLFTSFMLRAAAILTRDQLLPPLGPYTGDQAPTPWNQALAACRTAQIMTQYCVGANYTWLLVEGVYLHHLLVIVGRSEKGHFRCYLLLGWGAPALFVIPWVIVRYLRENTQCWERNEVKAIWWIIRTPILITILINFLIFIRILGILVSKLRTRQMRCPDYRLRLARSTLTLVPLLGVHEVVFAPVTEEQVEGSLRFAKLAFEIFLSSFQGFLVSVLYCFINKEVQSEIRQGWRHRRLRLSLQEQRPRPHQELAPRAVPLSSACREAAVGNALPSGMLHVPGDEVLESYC", "experiment": "GIPR agonist activity, cAMP in transfected HEK293 cells", "type": "cell-based", "protocol": "HEK293 cells were co-transfected with cDNA encoding GLP-1R or GIPR. In a test for determining the compound, the cells were inoculated in a 96-well plate 2 h in advance, the polypeptide compound was dissolved with DMSO, and diluted to different multiples with a culture medium containing 0.1% bovine serum albumin and added to the co-transfected cells."}}, "note": "*1 amine or outer side, *2 acyl side, *3 side chain or, on linkers, in order; H or OH if unused. Where a SMILES comes first, the peptide text is derived from it. Side-chain parts run from the residue outwards. [ ]: non-standard residue; d: D form. The star is where a group is joined. C18 diacid = O=C(O)CCCCCCCCCCCCCCCCC(=O)*; γGlu = O=C(O)[C@H](CCC(=O)[*:2])N[*:1]; AEEA = NCCOCCOCC(=O)O; Aib = CC(C)(N)C(=O)O"}
{"smiles": "CC[C@H](C)[C@H](NC(=O)[C@H](CCCCN)NC(=O)[C@H](CC(=O)O)NC(=O)[C@H](CC(C)C)NC(=O)[C@H](C)NC(=O)[C@@H](NC(=O)[C@H](CO)NC(=O)[C@H](Cc1ccc(O)cc1)NC(=O)[C@H](CC(=O)O)NC(=O)[C@H](CO)NC(=O)[C@@H](NC(=O)[C@H](Cc1ccccc1)NC(=O)[C@@H](NC(=O)CNC(=O)[C@H](CCC(=O)O)NC(=O)C(C)(C)NC(=O)[C@@H](N)Cc1ccc(O)cc1)[C@@H](C)O)[C@@H](C)O)[C@@H](C)CC)C(=O)N[C@@H](C)C(=O)N[C@@H](CCC(N)=O)C(=O)N[C@@H](CCCCNC(=O)COCCOCCNC(=O)COCCOCCNC(=O)CC[C@H](NC(=O)CCCCCCCCCCCCCCCCC(=O)O)C(=O)O)C(=O)N[C@@H](C)C(=O)N[C@@H](Cc1ccccc1)C(=O)N[C@H](C(=O)N[C@@H](CCC(N)=O)C(=O)N[C@@H](Cc1c[nH]c2ccccc12)C(=O)N[C@@H](CC(C)C)C(=O)N[C@H](C(=O)N[C@@H](C)C(=O)NCC(=O)NCC(=O)N1CCC[C@H]1C(=O)N[C@@H](CO)C(=O)N[C@@H](CO)C(=O)NCC(=O)N[C@@H](C)C(=O)N1CCC[C@H]1C(=O)N1CCC[C@H]1C(=O)N1CCC[C@H]1C(=O)N[C@@H](CO)C(N)=O)[C@@H](C)CC)C(C)C", "note": "[ID NO: 6] (H-Y[Aib]EGTFTSDYSIALDKIAQK([AEEA-AEEA-γGlu-C18 diacid])AFVQWLIAGGPSSGAPPPS-NH2)", "values": [{"measurement": "Changes of random body weight at different time after administration, 0 h", "setting": "[1]; 0 h", "result": "0.0 ± 0.0", "unit": "g"}, {"measurement": "Random body weight at different time after administration, 0 h", "setting": "[1]; 0 h", "result": "43.5 ± 0.6", "unit": "g"}, {"measurement": "Changes of random body weight at different time after administration, 24 h", "setting": "[1]; 24 h", "result": "-1.5 ± 0.2", "unit": "g"}, {"measurement": "Random body weight at different time after administration, 24 h", "setting": "[1]; 24 h", "result": "42.1 ± 0.7", "unit": "g"}, {"measurement": "Changes of random body weight at different time after administration, 48 h", "setting": "[1]; 48 h", "result": "-0.8 ± 0.1", "unit": "g"}, {"measurement": "Random body weight at different time after administration, 48 h", "setting": "[1]; 48 h", "result": "42.7 ± 0.7", "unit": "g"}, {"measurement": "Blood glucose at different time after administration, 0 h", "setting": "[2]; 0 h (before administration), X ± s, n = 7", "result": "20.64 ± 0.77", "unit": "mmol/L"}, {"measurement": "Decrease rate of blood glucose at different time after administration, 2 h", "setting": "[2]; 2 h", "result": 52.7, "unit": "%"}, {"measurement": "Blood glucose at different time after administration, 2 h", "setting": "[2]; 2 h, X ± s, n = 7", "result": "9.76 ± 0.83", "unit": "mmol/L"}, {"measurement": "Decrease rate of blood glucose at different time after administration, 4 h", "setting": "[2]; 4 h", "result": 56.6, "unit": "%"}, {"measurement": "Blood glucose at different time after administration, 4 h", "setting": "[2]; 4 h, X ± s, n = 7", "result": "8.96 ± 0.77", "unit": "mmol/L"}, {"measurement": "Decrease rate of blood glucose at different time after administration, 6 h", "setting": "[2]; 6 h", "result": 58.6, "unit": "%"}, {"measurement": "Blood glucose at different time after administration, 6 h", "setting": "[2]; 6 h, X ± s, n = 7", "result": "8.55 ± 0.96", "unit": "mmol/L"}, {"measurement": "Decrease rate of blood glucose at different time after administration, 10 h", "setting": "[2]; 10 h", "result": 51.9, "unit": "%"}, {"measurement": "Blood glucose at different time after administration, 10 h", "setting": "[2]; 10 h, X ± s, n = 7", "result": "9.93 ± 0.76", "unit": "mmol/L"}, {"measurement": "Decrease rate of blood glucose at different time after administration, 24 h", "setting": "[2]; 24 h", "result": 49.0, "unit": "%"}, {"measurement": "Blood glucose at different time after administration, 24 h", "setting": "[2]; 24 h, X ± s, n = 7", "result": "10.53 ± 1.21", "unit": "mmol/L"}, {"measurement": "Decrease rate of blood glucose at different time after administration, 34 h", "setting": "[2]; 34 h", "result": 36.4, "unit": "%"}, {"measurement": "Blood glucose at different time after administration, 34 h", "setting": "[2]; 34 h, X ± s, n = 7", "result": "13.13 ± 2.21", "unit": "mmol/L"}, {"measurement": "Decrease rate of blood glucose at different time after administration, 48 h", "setting": "[2]; 48 h", "result": 13.8, "unit": "%"}, {"measurement": "AUC0-24 h Glu", "setting": "[2]; blood glucose curve area within 24 h, X ± s, n = 7", "result": "246.81 ± 18.95", "unit": "mmol·h/L"}, {"measurement": "AUC0-24 h Glu Decrease rate", "setting": "[2]; versus model control group", "result": 51.7, "unit": "%"}, {"measurement": "EC50", "setting": "[3]", "result": 2.58, "unit": "pM"}, {"measurement": "EC50", "setting": "[4]", "result": 9.29, "unit": "pM"}]}
